# Where a name gives a salt, the structure may show the parent alone.
row,SMILES,melting point [°C]
1,Cl.Clc1ccccc1OCC1CCc2[nH]cnc2C1 (centres unmarked),224 to 226
2,Cl.Fc1ccccc1OCC1CCc2[nH]cnc2C1 (centres unmarked),192 to 194
3,Cl.FC(F)(F)Oc1cccc(OCC2CCc3[nH]cnc3C2)c1 (centres unmarked),170 to 171
4,Cl.c1ccc(-c2cccc(OCC3CCc4[nH]cnc4C3)c2)cc1 (centres unmarked),165 to 167
5,FC(F)(F)c1ccc(OCC2CCCc3[nH]cnc32)cc1 (centres unmarked) (as salt: hydrochloride),242 to 244
6,Cc1cc(C#N)cc(C)c1OCC1CCCc2[nH]cnc21 (centres unmarked) (as salt: hydrochloride),190 to 192
7,O=C1CCCc2c(OCC3CCCc4[nH]cnc43)cccc21 (centres unmarked) (as salt: hydrochloride),237 to 240
8,"FC(F)(F)Oc1ccc(OCC2CCCc3[nH]cnc32)cc1 (centres unmarked) (as salt: hydrochloride) [Example 58, 4-(4-Trifluoromethoxyphenoxymethyl)-4,5,6,7-tetrahydro-1H-benzimidazole, Hydrochloride]",202 to 209
9,"O=C(c1ccc(OCC2CCCc3[nH]cnc32)cc1)C1CC1 (centres unmarked) (as salt: hydrochloride) [Example 63, Cyclopropyl-[4-(4,5,6,7-tetrahydro-1H-benzimidazol-4-ylmethoxy)phenyl]methanone, hydrochloride]",211 to 213

# Other lines, results leading:
row,melting point [°C],SMILES
1,207 to 209,Cl.Clc1ccccc1OCC1CCCc2[nH]cnc21 (centres unmarked)
2,225 to 227,N#Cc1ccc(OCC2CCCc3[nH]cnc32)c(Cl)c1 (centres unmarked) (as salt: hydrochloride)
3,193 to 195,COc1cc(C#N)ccc1OCC1CCCc2[nH]cnc21 (centres unmarked) (as salt: hydrochloride)
4,210 to 212,Clc1ccc(OCC2CCCc3[nH]cnc32)cc1 (centres unmarked) (as salt: hydrochloride)
5,232 to 235,"N#Cc1ccc(OCC2CCCCc3[nH]cnc32)cc1 (centres unmarked) (as salt: hydrochloride) [Example 57, 4-(1,4,5,6,7,8-Hexahydrocycloheptaimidazol-4-ylmethoxy)benzonitrile, Hydrochloride]"
